Test results from patent publication US20030153618A1, “Treatment and prevention of herpes simplex infections” (priority 1999, published 2003).

How the values were obtained:
[1] = system: HSV, Type II; experiment: Direct plaque-forming unit (PFU) count in BSC cells in defined media with set lysine (or derivative):arginine ratio; assay type: cell-based; settings: average of three tests
Experimental: Absorbed virons were absorbed in susceptible cells in chemically defined media and the number of plaques made were counted. (See Davis, B. D., et al., Microbiology, 2nd Ed., Harper & Row, 1973, Part V, and sources cited therein for procedural details and discussion of the plaque method.)
The cell line chosen was green monkey kidney cells (BSC) that have been passed greater than 41 times. […] The virons were added to a confluent lawn of BSC cells and allowed to absorb at 25° C. for one hour. The unabsorbed virons and the media were removed by washing three times in PBS. […] The control media contained a lysine/arginine ratio of 1:1. The plaques were counted when easily readable. Flasks are done in triplicate.

[2] = system: Herpes simplex II virus; experiment: Back titration plaque assay: PFU counts at stated amounts of compound under test and arginine; assay type: cell-based, Herpes simplex II virus (BSC cells)
Experimental: The following experiments were conducted by back titration: Herpes simplex II virus from laboratory stocks was used. BSC cells were grown to confluence in Eagles medium with 15% fetal calf serum, 150 units per milliliter of penicillin and 100 micrograms per milliliter of streptomycin. The cultures were inoculated with 500 PFU of HS II. The virons were allowed to absorb for one hour at 25° C. The tissue cultures were then washed three times with sterile PBS to remove excess media and non-absorbed virons. The cells were then incubated at 37° C. until four-plus cytopathic effects were observed. The cells were then disrupted by slow freeze-thaw two times. The suspension was then clarified by slow speed centrifugation at 4° C. The supemanant suspension was then added to confluent BSC cultures. After one hour absorption, the cells were washed with PBS twice. The cells were overlaid in defined reagent (in triplicate) Eagles media in noble agar. The cells were then incubated at 37° C. until the plaques were easily counted, usually 40 t 72 hours. the cells were then washed two times with PBS and then fixed with 10% H2CO and a 2% sodium acetate. The cells were then stained in 0.1% crystal violet in ethanol. In the tables which follow the concentration of the compound to be tested, in micrograms per milliliter, is listed across the top of the table and the concentration of arginine in micrograms per milliliter is listed down the left side of the table, the count of plaque-forming units being shown in the matrix.

SMILES: CC(CN)CC[C@H](N)C(=O)O (stereo partly drawn) [5-Methyl lysine]
- P.F.U. Count ([1]; Compound Ratio to Arginine 10:1): 79
- P.F.U. Count ([1]; Compound Ratio to Arginine 100:1): 43
- P.F.U. Count ([2]; compound 10 μg/ml, arginine 0 μg/ml): 30
- P.F.U. Count ([2]; compound 10 μg/ml, arginine 2.5 μg/ml): 2.7 × 10^3
- P.F.U. Count ([2]; compound 10 μg/ml, arginine 5.0 μg/ml): 3.7 × 10^4
- P.F.U. Count ([2]; compound 10 μg/ml, arginine 7.5 μg/ml): 6.0 × 10^4
- P.F.U. Count ([2]; compound 10 μg/ml, arginine 10 μg/ml): 7.9 × 10^4
- P.F.U. Count ([2]; compound 10 μg/ml, arginine 15 μg/ml): 2.0 × 10^5
- P.F.U. Count ([2]; compound 10 μg/ml, arginine 20 μg/ml): 3.0 × 10^5
- P.F.U. Count ([2]; compound 10 μg/ml, arginine 25 μg/ml): 3.0 × 10^5
- P.F.U. Count ([2]; compound 25 μg/ml, arginine 0 μg/ml): 0
- P.F.U. Count ([2]; compound 25 μg/ml, arginine 2.5 μg/ml): 697
- P.F.U. Count ([2]; compound 25 μg/ml, arginine 5.0 μg/ml): 1.4 × 10^3
- P.F.U. Count ([2]; compound 25 μg/ml, arginine 7.5 μg/ml): 4.7 × 10^3
- P.F.U. Count ([2]; compound 25 μg/ml, arginine 10 μg/ml): 6.5 × 10^4
- P.F.U. Count ([2]; compound 25 μg/ml, arginine 15 μg/ml): 1.7 × 10^4
- P.F.U. Count ([2]; compound 25 μg/ml, arginine 20 μg/ml): 3.1 × 10^5
- P.F.U. Count ([2]; compound 25 μg/ml, arginine 25 μg/ml): 3.0 × 10^5
- P.F.U. Count ([2]; compound 50 μg/ml, arginine 0 μg/ml): 0
- P.F.U. Count ([2]; compound 50 μg/ml, arginine 2.5 μg/ml): 0
- P.F.U. Count ([2]; compound 50 μg/ml, arginine 5.0 μg/ml): 190
- P.F.U. Count ([2]; compound 50 μg/ml, arginine 7.5 μg/ml): 190
- P.F.U. Count ([2]; compound 50 μg/ml, arginine 10 μg/ml): 1.7 × 10^3
- P.F.U. Count ([2]; compound 50 μg/ml, arginine 15 μg/ml): 1.3 × 10^3
- P.F.U. Count ([2]; compound 50 μg/ml, arginine 20 μg/ml): 3.0 × 10^5
- P.F.U. Count ([2]; compound 50 μg/ml, arginine 25 μg/ml): 3.0 × 10^5
- P.F.U. Count ([2]; compound 100 μg/ml, arginine 0 μg/ml): 0
- P.F.U. Count ([2]; compound 100 μg/ml, arginine 2.5 μg/ml): 0
- P.F.U. Count ([2]; compound 100 μg/ml, arginine 5.0 μg/ml): 69
- P.F.U. Count ([2]; compound 100 μg/ml, arginine 7.5 μg/ml): 170
- P.F.U. Count ([2]; compound 100 μg/ml, arginine 10 μg/ml): 656
- P.F.U. Count ([2]; compound 100 μg/ml, arginine 15 μg/ml): 710
- P.F.U. Count ([2]; compound 100 μg/ml, arginine 20 μg/ml): 1.2 × 10^5
- P.F.U. Count ([2]; compound 100 μg/ml, arginine 25 μg/ml): 2.4 × 10^5
- P.F.U. Count ([2]; compound 200 μg/ml, arginine 0 μg/ml): 0
- P.F.U. Count ([2]; compound 200 μg/ml, arginine 2.5 μg/ml): 0
- P.F.U. Count ([2]; compound 200 μg/ml, arginine 5.0 μg/ml): 0
- P.F.U. Count ([2]; compound 200 μg/ml, arginine 7.5 μg/ml): 0
- P.F.U. Count ([2]; compound 200 μg/ml, arginine 10 μg/ml): 79
- P.F.U. Count ([2]; compound 200 μg/ml, arginine 15 μg/ml): 63
- P.F.U. Count ([2]; compound 200 μg/ml, arginine 20 μg/ml): 2.7 × 10^5
- P.F.U. Count ([2]; compound 200 μg/ml, arginine 25 μg/ml): 4.1 × 10^5
- P.F.U. Count ([2]; compound 300 μg/ml, arginine 0 μg/ml): 0
- P.F.U. Count ([2]; compound 300 μg/ml, arginine 2.5 μg/ml): 0
- P.F.U. Count ([2]; compound 300 μg/ml, arginine 5.0 μg/ml): 0
- P.F.U. Count ([2]; compound 300 μg/ml, arginine 7.5 μg/ml): 0
- P.F.U. Count ([2]; compound 300 μg/ml, arginine 10 μg/ml): 0
- P.F.U. Count ([2]; compound 300 μg/ml, arginine 15 μg/ml): 1.9 × 10^4
- P.F.U. Count ([2]; compound 300 μg/ml, arginine 20 μg/ml): 5.6 × 10^4
- P.F.U. Count ([2]; compound 300 μg/ml, arginine 25 μg/ml): 6.1 × 10^4
- P.F.U. Count ([2]; compound 400 μg/ml, arginine 0 μg/ml): 0
- P.F.U. Count ([2]; compound 400 μg/ml, arginine 2.5 μg/ml): 0
- P.F.U. Count ([2]; compound 400 μg/ml, arginine 5.0 μg/ml): 0
- P.F.U. Count ([2]; compound 400 μg/ml, arginine 7.5 μg/ml): 0
- P.F.U. Count ([2]; compound 400 μg/ml, arginine 10 μg/ml): 0
- P.F.U. Count ([2]; compound 400 μg/ml, arginine 15 μg/ml): 1.9 × 10^4
- P.F.U. Count ([2]; compound 400 μg/ml, arginine 20 μg/ml): 1.7 × 10^4
- P.F.U. Count ([2]; compound 400 μg/ml, arginine 25 μg/ml): 4.6 × 10^4
- P.F.U. Count ([2]; compound 500 μg/ml, arginine 0 μg/ml): 0
- P.F.U. Count ([2]; compound 500 μg/ml, arginine 2.5 μg/ml): 0
- P.F.U. Count ([2]; compound 500 μg/ml, arginine 5.0 μg/ml): 0
- P.F.U. Count ([2]; compound 500 μg/ml, arginine 7.5 μg/ml): 0
- P.F.U. Count ([2]; compound 500 μg/ml, arginine 10 μg/ml): 0
- P.F.U. Count ([2]; compound 500 μg/ml, arginine 15 μg/ml): 1.0 × 10^4
- P.F.U. Count ([2]; compound 500 μg/ml, arginine 20 μg/ml): 2.3 × 10^3
- P.F.U. Count ([2]; compound 500 μg/ml, arginine 25 μg/ml): 4.0 × 10^4
